Patent US8513233B2, “Pyrimidinyl-propionic acid derivatives and their use as PPAR agonists” (Shanghai Institute of Materia Medica, CAS, priority 2007, dated 2013)

How the values were obtained:
Format in all cases: cell-based
[1] = target: T1, PPAR-γ (Homo sapiens, UniProt P37231); assay: Transient transfection and transcription assay (luciferase reporter, U2OS cells); conditions: 24 h treatment
T1 construct: expressed in transfected cells; host or cells: U2OS cells, transiently transfected with pcDNA3.1 expression vectors (FuGene6)
T1 sequence (P37231 1-505): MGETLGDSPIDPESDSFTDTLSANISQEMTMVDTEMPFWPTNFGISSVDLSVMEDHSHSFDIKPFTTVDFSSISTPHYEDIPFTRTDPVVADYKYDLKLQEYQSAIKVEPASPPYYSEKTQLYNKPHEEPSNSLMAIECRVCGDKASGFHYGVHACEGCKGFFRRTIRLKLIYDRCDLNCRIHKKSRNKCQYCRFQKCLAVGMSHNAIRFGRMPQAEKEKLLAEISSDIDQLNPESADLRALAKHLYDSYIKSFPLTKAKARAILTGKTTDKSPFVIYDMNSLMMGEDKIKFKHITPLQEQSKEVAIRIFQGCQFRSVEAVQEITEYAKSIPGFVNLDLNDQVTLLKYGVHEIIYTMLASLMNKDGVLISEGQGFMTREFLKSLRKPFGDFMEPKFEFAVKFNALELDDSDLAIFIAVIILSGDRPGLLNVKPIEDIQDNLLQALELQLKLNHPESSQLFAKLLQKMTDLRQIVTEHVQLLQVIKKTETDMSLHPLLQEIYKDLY
T1 sequence (P19793 1-462 partner): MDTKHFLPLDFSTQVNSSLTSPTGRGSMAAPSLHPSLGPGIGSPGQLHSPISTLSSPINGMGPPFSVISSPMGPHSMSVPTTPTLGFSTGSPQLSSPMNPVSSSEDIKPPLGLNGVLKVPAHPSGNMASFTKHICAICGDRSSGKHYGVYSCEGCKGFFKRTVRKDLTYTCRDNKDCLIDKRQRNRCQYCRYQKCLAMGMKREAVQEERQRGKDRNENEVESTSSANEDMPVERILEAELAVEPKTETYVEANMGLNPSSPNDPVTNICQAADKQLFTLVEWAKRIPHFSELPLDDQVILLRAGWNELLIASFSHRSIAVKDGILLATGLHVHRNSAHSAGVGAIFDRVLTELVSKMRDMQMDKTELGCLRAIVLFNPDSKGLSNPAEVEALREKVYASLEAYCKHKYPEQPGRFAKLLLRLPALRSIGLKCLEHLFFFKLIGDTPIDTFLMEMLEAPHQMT
Experimental: cDNAs for Human RXR, PPAR were obtained by RTPCR from the human liver or adipose tissues. Amplified cDNAs were cloned into pcDNA3.1 expression vector and the inserts were confirmed by sequencing. U2OS cells were cultured in McCoy's 5A with 10% heat-inactivated fetal bovine serum in a humidified 5% CO2 atmosphere at 37° C. Cells were seeded in 96-well plates the day before transfection to give a confluence of 50-80% at transfection. A total of 60 ng of DNA containing 10 ng of hRXR, 10 ng of pCMV Gal, 10 ng of nuclear receptor expression vectors and 30 ng of the corresponding reporters were cotransfected per well using FuGene6 transfection reagent according to the manufacturer's instructions. […] The final concentration of DMSO in culture medium was 0.1%. […] Luciferase activity was monitored using the luciferase assay kit according to the manufacturers instructions. Light emission was read in a Labsystems Ascent Fluoroskan reader. To measure galactosidase activity to normalize the luciferase data, 50 IL of supernatant from each transfection lysate was transferred to a new microplate. Galactosidase assays were performed in the microwell plates using a kit from Promega and read in a microplate reader. Compounds were tested in five concentrations ranging from 0.01 to 10 μM. […] The results were expressed as means (SD).

[2] = tested on: SPC-A1; assay: Growth inhibition, modified MTT assay, SPC-A1; conditions: SPCA1, mean of 3 independent tests
Experimental: (§1) The growth inhibition was evaluated by the modified MTT assay. Briefly, the cells were seeded at 1×10^4 cells/well in 96-well plates (Falcon, Calif., USA), and incubated for 24 h in […] culture media with 10% FCS. The media were then replaced by serum-free medium. After 24 h, the media were placed in triplicate with grade concentrations of compounds. As controls, the cells were cultivated in DMEM/F12 only. The cells were then treated by MTT (Sigma, USA) assay, […] (5 g/L) for 4 h. After the removal of the supernatant, the purple-blue sediment was dissolved in 100 μL/well DMSO, and the optical densities were read on the multi-well scanning spectrophotometer (Labsystems Dragon, Finland) at 492 nm (A492). The growth inhibition rate (GIR) of the treated cells was calculated using Equation: GIR(%)={1−[A490/A490(control)]}×100% The results were also converted to IC50 (the compound concentration required for 50% growth inhibition of tumor cells), which were calculated by using the sigmoidal fitting model by the Origin 7.0 software (OriginLab, Northampton, Mass., USA). The mean IC50 was determined from the results of 3 independent tests.

[3] = tested on: T24; assay: Growth inhibition, modified MTT assay, T24; conditions: Homo sapiens, T-24, mean of 3 independent tests
Experimental: as §1

[4] = tested on: HepG2; assay: Growth inhibition, modified MTT assay, HepG2; conditions: Homo sapiens, mean of 3 independent tests
Experimental: as §1

[5] = tested on: MCF-7; assay: Growth inhibition, modified MTT assay, MCF-7; conditions: Homo sapiens, MCF7; MCF-7, MTT, mean of 3 independent tests
Experimental: as §1

| EC50 [1] [µM] | IC50 [3] [µM] | IC50 [4] [µM] | IC50 [5] [µM] | SMILES | IC50 [2] [µM] |
| --- | --- | --- | --- | --- | --- |
| 2.24 | 37.7 | 30 | 34.2 | CC(Cc1ccc(Oc2cc(N3CCN(Cc4ccccc4)CC3)nc(N)n2)cc1)(Oc1ccc(C(F)(F)F)cc1)C(=O)O (stereo not drawn) [Compound 32, 3-{4-[2-Amino-6-(4-benzyl-piperazin-1-yl)-pyrimidin-4-yloxy]-phenyl}-2-methyl-2-(4-trifluoromethyl-phenoxy)-propionic acid] | 28 |
| 3.31 |  |  |  | C[C@@](Cc1ccc(Oc2cc(N3CCN(Cc4ccccc4)CC3)nc(N)n2)cc1)(Oc1ccccc1)C(=O)O [Compound 3, S-3-{4-[2-Amino-6-(4-benzyl-piperazin-1-yl)-pyrimidin-4-yloxy]-phenyl}-2-methyl-2-phenoxy-propionic acid] |  |
|  | > 50 | > 50 | > 50 | CC(Cc1ccc(Oc2cc(N3CCN(C(=O)c4ccccc4)CC3)nc(N)n2)cc1)(Oc1ccccc1)C(=O)O (stereo not drawn) [Compound 21, 3-{4-[2-Amino-6-(4-benzoyl-piperazin-1-yl)-pyrimidin-4-yloxy]-phenyl}-2-methyl-2-phenoxy-propionic acid] | > 50 |
| 4.27 | 29.1 | 38.1 | 15.1 | CC(Cc1ccc(Oc2cc(N3CCN(Cc4cccc(C(F)(F)F)c4)CC3)nc(N)n2)cc1)(Oc1ccccc1)C(=O)O (stereo not drawn) [Compound 10, 3-{4-{2-Amino-6-[4-(3-trifluoromethyl-benzyl)-piperazin-1-yl]-pyrimidin-4-yloxy}-phenyl}-2-methyl-2-phenoxy-propionic acid] | 25.1 |
| 5.89 | 20.1 | 32.6 | 35.7 | CC(Cc1ccc(Oc2cc(N3CCN(c4ncccn4)CC3)nc(N)n2)cc1)(Oc1ccccc1)C(=O)O (stereo not drawn) [Compound 20, 3-{4-[2-Amino-6-(4-pyrimidin-2-yl-piperazin-1-yl)-pyrimidin-4-yloxy]-phenyl}-2-methyl-2-phenoxy-propionic acid] | 29.1 |
| 5.75 | > 50 | > 50 | 42.8 | COc1ccc(OC(C)(Cc2ccc(Oc3cc(N4CCN(Cc5ccccc5)CC4)nc(N)n3)cc2)C(=O)O)cc1 (stereo not drawn) [Compound 30, 3-{4-[2-Amino-6-(4-benzyl-piperazin-1-yl)-pyrimidin-4-yloxy]-phenyl}-2-(4-methoxy-phenoxy)-2-methyl-propionic acid] | 38.9 |
|  | > 50 | > 50 | > 50 | COc1ccccc1C(=O)N1CCN(c2cc(Oc3ccc(CC(C)(Oc4ccccc4)C(=O)O)cc3)nc(N)n2)CC1 (stereo not drawn) [Compound 25, 3-{4-{2-Amino-6-[4-(2-methoxy-benzoyl)-piperazin-1-yl]-pyrimidin-4-yloxy}-phenyl}-2-methyl-2-phenoxy-propionic acid] | > 50 |
| 4.68 | 22.6 | 29.7 |  | CC(Cc1ccc(Oc2cc(N3CCN(c4ccccc4)CC3)nc(N)n2)cc1)(Oc1ccccc1)C(=O)O (stereo not drawn) [Compound 22, 3-{4-[2-Amino-6-(4-phenyl-piperazin-1-yl)-pyrimidin-4-yloxy]-phenyl}-2-methyl-2-phenoxy-propionic acid] | 32.5 |
| 5.75 |  |  |  | C[C@@](Cc1ccc(Oc2cc(N3CCN(Cc4ccccc4)CC3)nc(N)n2)cc1)(Oc1ccccc1)C(=O)O (stereo in doubt) [Compound 4, R-3-{4-[2-Amino-6-(4-benzyl-piperazin-1-yl)-pyrimidin-4-yloxy]-phenyl}-2-methyl-2-phenoxy-propionic acid] |  |
| 3.8 | 40.8 | 45.5 | 29.3 | Cc1ccc(OC(C)(Cc2ccc(Oc3cc(N4CCN(Cc5ccccc5)CC4)nc(N)n3)cc2)C(=O)O)cc1 (stereo not drawn) [Compound 31, 3-{4-[2-Amino-6-(4-benzyl-piperazin-1-yl)-pyrimidin-4-yloxy]-phenyl}-2-methyl-2-p-tolyloxy-propionic acid] | 35.3 |
|  | 38.8 | 35.6 | 23.3 | CC(Cc1ccc(Oc2cc(N3CCN(Cc4cccc(C#N)c4)CC3)nc(N)n2)cc1)(Oc1ccccc1)C(=O)O (stereo not drawn) [Compound 26, 3-{4-{2-Amino-6-[4-(3-cyano-benzyl)-piperazin-1-yl]-pyrimidin-4-yloxy}-phenyl}-2-methyl-2-phe noxy-propionic acid] | 37.7 |
|  | 39.4 | > 50 | 38.2 | CCCc1ccc(C(=O)N2CCN(c3cc(Oc4ccc(CC(C)(Oc5ccccc5)C(=O)O)cc4)nc(N)n3)CC2)cc1 (stereo not drawn) [Compound 24, 3-{4-{2-Amino-6-[4-(4-propyl-benzoyl)-piperazin-1-yl]-pyrimidin-4-yloxy}-phenyl}-2-methyl-2-phenoxy-propionic acid] | 43.7 |
|  | > 50 | > 50 | > 50 | CC(Cc1ccc(Oc2cc(N3CCN(Cc4ccccn4)CC3)nc(N)n2)cc1)(Oc1ccccc1)C(=O)O (stereo not drawn) [Compound 36, 3-{4-[2-Amino-6-(4-pyridin-2-ylmethyl-piperazin-1-yl)-pyrimidin-4-yloxy]-phenyl}-2-methyl-2-phenoxy-propionic acid] | > 50 |

| SMILES | EC50 [1] [µM] | IC50 [3] [µM] | IC50 [4] [µM] | IC50 [5] [µM] | IC50 [2] [µM] |
| --- | --- | --- | --- | --- | --- |
| CC(Cc1ccc(Oc2cc(N3CCN(CC4CCCCC4)CC3)nc(N)n2)cc1)(Oc1ccccc1)C(=O)O (stereo not drawn) [Compound 27, 3-{4-[2-Amino-6-(4-cyclohexylmethyl-piperazin-1-yl)-pyrimidin-4-yloxy]-phenyl}-2-methyl-2-phenoxy-propionic acid] | 5.37 | > 50 | 44.5 | > 50 | > 50 |
| CC(Cc1ccc(Oc2cc(N3CCN(c4cccc(Cl)c4)CC3)nc(N)n2)cc1)(Oc1ccccc1)C(=O)O (stereo not drawn) [Compound 23, 3-{4-{2-Amino-6-[4-(3-chloro-phenyl)-piperazin-1-yl]-pyrimidin-4-yloxy}-phenyl}-2-methyl-2-phenoxy-propionic acid] | 4.37 | 15.2 | 20 | 11.8 | 12 |
| CC(Cc1ccc(Oc2cc(N3CCN(Cc4cccc5ccccc45)CC3)nc(N)n2)cc1)(Oc1ccccc1)C(=O)O (stereo not drawn) [Compound 6, 3-{4-[2-Amino-6-(4-(naphthalen-1-ylmethyl)-piperazin-1-yl)-pyrimidin-4-yloxy]-phenyl}-2-methyl-2-phenoxy-propionic acid] | 3.39 | 36.3 | 24.8 | 42.2 | 49.8 |
